Reference: the supplement of paper PMC4862054

Tests used:
Conditions in all cases: incubation time: 72 h
MDA-MB-231 [1] = test: normalised response (% of control), CellTiter-Glo; higher = more viable cells (100 = DMSO, 0 = benzethonium chloride kill control)
Summary of the method: (§1)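 Compound was dispensed into 384-well plates at 5 concentrations in 10-fold steps spanning a 10,000-fold range specific to that compound. Breast cancer cell lines were added as 20 µl suspension and left for 72 h before CellTox Green fluorescence (485/520 nm) and then CellTiter-Glo luminescence, read after 10 min at room temperature. Each reported value is the normalised signal at one concentration, with 0.1 % DMSO set at 100 and a positive kill control at 0 on each plate.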

CAL-148 [2] = test: as above
Summary of the method: as §1

CAL-85-1 [3] = test: as above
Summary of the method: as §1

MDA-MB-436 [4] = test: as above
Summary of the method: as §1

Hs578T [5] = test: as above
Summary of the method: as §1

CAL-51 [6] = test: as above
Summary of the method: as §1

MDA-MB-453 [7] = test: as above
Summary of the method: as §1

HCC1143 [8] = test: as above
Summary of the method: as §1

CAL-120 [9] = test: as above
Summary of the method: as §1

DU-4475 [10] = test: as above
Summary of the method: as §1

MCF-10A [11] = test: as above
Summary of the method: as §1

SK-BR-3 = test: as above
Summary of the method: as §1

BT-474 [12] = test: as above
Summary of the method: as §1

HCC1599 [13] = test: as above
Summary of the method: as §1

MFM-223 [14] = test: as above
Summary of the method: as §1

HCC1937 [15] = test: as above
Summary of the method: as §1

MDA-MB-468 [16] = test: as above
Summary of the method: as §1

BT-549 [17] = test: as above
Summary of the method: as §1

HDQ-P1 [18] = test: as above
Summary of the method: as §1

MDA-MB-231 [19] = test: normalised response (% of control), CellTox Green; higher = less cell death (100 = DMSO, 0 = benzethonium chloride kill control)
Summary of the method: as §1

CAL-148 [20] = test: as above
Summary of the method: as §1

CAL-85-1 [21] = test: as above
Summary of the method: as §1

MDA-MB-436 [22] = test: as above
Summary of the method: as §1

Hs578T [23] = test: as above
Summary of the method: as §1

CAL-51 [24] = test: as above
Summary of the method: as §1

MDA-MB-453 [25] = test: as above
Summary of the method: as §1

HCC1143 [26] = test: as above
Summary of the method: as §1

CAL-120 [27] = test: as above
Summary of the method: as §1

DU-4475 [28] = test: as above
Summary of the method: as §1

MCF-10A [29] = test: as above
Summary of the method: as §1

BT-474 [30] = test: as above
Summary of the method: as §1

HCC1599 [31] = test: as above
Summary of the method: as §1

MFM-223 [32] = test: as above
Summary of the method: as §1

HCC1937 [33] = test: as above
Summary of the method: as §1

MDA-MB-468 [34] = test: as above
Summary of the method: as §1

BT-549 [35] = test: as above
Summary of the method: as §1

HDQ-P1 [36] = test: as above
Summary of the method: as §1

| Structure (SMILES) | normalised response (MDA-MB-231 [1]) [%] | normalised response (CAL-148 [2]) [%] | normalised response (CAL-85-1 [3]) [%] | normalised response (MDA-MB-436 [4]) [%] | normalised response (Hs578T [5]) [%] | normalised response (CAL-51 [6]) [%] | normalised response (MDA-MB-453 [7]) [%] | normalised response (HCC1143 [8]) [%] | normalised response (CAL-120 [9]) [%] | normalised response (DU-4475 [10]) [%] | normalised response (MCF-10A [11]) [%] | normalised response (SK-BR-3) [%] | normalised response (BT-474 [12]) [%] | normalised response (HCC1599 [13]) [%] | normalised response (MFM-223 [14]) [%] | normalised response (HCC1937 [15]) [%] | normalised response (MDA-MB-468 [16]) [%] | normalised response (BT-549 [17]) [%] | normalised response (HDQ-P1 [18]) [%] | normalised response (MDA-MB-231 [19]) [%] | normalised response (CAL-148 [20]) [%] | normalised response (CAL-85-1 [21]) [%] | normalised response (MDA-MB-436 [22]) [%] | normalised response (Hs578T [23]) [%] | normalised response (CAL-51 [24]) [%] | normalised response (MDA-MB-453 [25]) [%] | normalised response (HCC1143 [26]) [%] | normalised response (CAL-120 [27]) [%] | normalised response (DU-4475 [28]) [%] | normalised response (MCF-10A [29]) [%] | normalised response (BT-474 [30]) [%] | normalised response (HCC1599 [31]) [%] | normalised response (MFM-223 [32]) [%] | normalised response (HCC1937 [33]) [%] | normalised response (MDA-MB-468 [34]) [%] | normalised response (BT-549 [35]) [%] | normalised response (HDQ-P1 [36]) [%] |
| --- | --- | --- | --- | --- | --- | --- | --- | --- | --- | --- | --- | --- | --- | --- | --- | --- | --- | --- | --- | --- | --- | --- | --- | --- | --- | --- | --- | --- | --- | --- | --- | --- | --- | --- | --- | --- | --- |
| O=C1CCC(N2C(=O)c3ccccc3C2=O)C(=O)N1 (configuration not stated) [Thalidomide] (100 nM) | 95.6 | 97.4 | 95.6 | 101 | 94.5 | 100 | 101 | 95.9 | 95.2 | 102 | 98.9 | 97.7 | 103 | 99.6 | 95.7 | 98.1 | 93.6 | 98.3 | 105 | 106 | 79.1 | 107 | 97.9 | 94.8 | 103 | 104 | 103 | 98.8 | 101 | 109 | 102 | 96.6 | 99.8 | 87.4 | 127 | 106 | 95.2 |
| Cc1ccc(-n2nc(C(C)(C)C)cc2NC(=O)Nc2ccc(OCCN3CCOCC3)c3ccccc23)cc1 [Doramapimod] (100 nM) | 96.5 | 79.7 | 92.4 | 100 | 98.7 | 99.5 | 99.4 | 97.1 | 99.4 | 93.7 | 85.3 | 90.8 | 94.2 | 93.7 | 91.8 | 89.9 | 89.6 | 106 | 93 | 82.1 | 100 | 85.4 | 98.5 | 105 | 101 | 98.1 | 104 | 95.8 | 97.7 | 93.5 | 94.5 | 97.4 | 99.4 | 97 | 89 | 77.5 | 101 |
| O=C(O)c1ccc(-c2c[nH]c3ncc(-c4ccccc4)cc23)cc1C1CCCC1 (100 nM) | 97.3 | 88 | 101 | 89.5 | 103 | 64.1 | 97.6 | 102 | 97.9 | 98.2 | 93.1 | 97.2 | 93.8 | 89.5 | 96.2 | 97.1 | 90.6 | 101 | 96.7 | 89.3 | 101 | 108 | 95.5 | 89.5 | 84.6 | 95.8 | 83.7 | 95 | 95.1 | 97.3 | 99.5 | 98.6 | 101 | 107 | 108 | 83.6 | 99 |
| N#CCNC(=O)c1ccc(-c2ccnc(Nc3ccc(N4CCOCC4)cc3)n2)cc1 [Momelotinib] (100 nM) | 94.8 | 94.1 | 101 | 99.1 | 102 | 70.4 | 110 | 117 | 97.2 | 95.9 | 85.6 | 95.9 | 92.1 | 112 | 94.8 | 97.8 | 90 | 102 | 105 | 53.8 | 97.8 | 102 | 104 | 93.5 | 83 | 101 | 78.1 | 98.2 | 97.5 | 66.3 | 100 | 89.7 | 81.4 | 94.6 | 168 | 104 | 102 |
| Cn1c(CCCC(=O)O)nc2cc(N(CCCl)CCCl)ccc21 [Bendamustine] (100 nM) | 104 | 117 | 97.3 | 97.6 | 103 | 107 | 125 | 111 | 103 | 101 | 108 | 108 | 104 | 99.1 | 106 | 105 | 106 | 106 | 102 | 102 | 107 | 89.6 | 91.8 | 105 | 111 | 105 | 110 | 97.4 | 103 | 73.5 | 102 | 109 | 105 | 88.6 | 141 | 101 | 88.7 |
| CN[C@@H]1C[C@H]2O[C@@](C)([C@@H]1OC)n1c3ccccc3c3c4c(c5c6ccccc6n2c5c31)C(=O)N[C@H]4O [UCN-01] (100 nM) | 25 | 109 | 44.2 | 52 | 19.5 | 39 | 62.4 | 63.1 | 37 | 77.8 | 24 | 39.4 | 33.1 | 14.1 | 70.9 | 54.4 | 48.2 | 52.1 | 68.3 | 40.7 | 86 | 54.8 | 77.1 | 55 | 56.1 | 90.4 | 84.4 | 88.8 | 91.2 | 75.5 | 80.8 | 85.5 | 80.2 | 92.9 | 76.9 | 62.6 | 50.5 |
